Measured values published in PubChem BioAssay AID493139 (Sanford-Burnham Center for Chemical Genomics, 2011).
Calls of active or inactive are those of the source. No rule for the calls is given here.

Target: Alkaline phosphatase, germ cell type (Homo sapiens) (UniProt P10696)
Assay: placental-like alkaline phosphatase activators or inhibitors – biochemical, human placental-like ALPPL2 isozyme, selectivity assay for mouse IAP activator project, SAR follow-up (AID 493139)
Settings: purified human placental-like alkaline phosphatase, enzymatic activity

Chain of Alkaline phosphatase, germ cell type (Homo sapiens) (P10696 whole entry, looked up): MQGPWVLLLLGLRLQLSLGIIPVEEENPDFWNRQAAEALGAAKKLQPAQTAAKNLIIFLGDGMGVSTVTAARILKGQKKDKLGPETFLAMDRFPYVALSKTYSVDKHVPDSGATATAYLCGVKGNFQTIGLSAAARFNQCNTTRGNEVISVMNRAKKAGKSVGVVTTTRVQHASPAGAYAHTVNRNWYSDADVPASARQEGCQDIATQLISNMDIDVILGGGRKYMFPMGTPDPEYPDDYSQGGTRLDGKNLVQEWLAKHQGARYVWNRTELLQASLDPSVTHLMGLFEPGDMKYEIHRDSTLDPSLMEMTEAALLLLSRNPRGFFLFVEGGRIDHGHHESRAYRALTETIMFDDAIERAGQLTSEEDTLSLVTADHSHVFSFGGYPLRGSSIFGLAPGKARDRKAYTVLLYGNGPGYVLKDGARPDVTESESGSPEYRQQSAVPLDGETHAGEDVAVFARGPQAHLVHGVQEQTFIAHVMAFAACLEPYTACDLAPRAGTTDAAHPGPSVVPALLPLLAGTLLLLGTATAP

Compound	IC50 (inhibition of PLAP activity)
COc1cc(C(=O)NN=Cc2ccccn2)cc(OC)c1OC	31.3 µM
CCOc1ccccc1NC(=O)CCNS(=O)(=O)c1ccc2[nH]c(=O)oc2c1	> 100 µM (inactive)
COc1ccc(NC(=O)CCNS(=O)(=O)c2ccc3[nH]c(=O)oc3c2)cc1Cl	> 100 µM (inactive)
FC(F)(F)c1cccc(NC(=S)NCCC(c2ccccc2)c2ccccc2)c1	63.5 µM
COc1cc(C(=O)NNC(=O)C2CC2)cc(OC)c1OC	> 100 µM (inactive)
O=C(NN=Cc1cccnc1)c1cc(O)c(O)c(O)c1	> 100 µM (inactive)
NS(=O)(=O)c1ccc(-c2ccc(/C=C3\SC(=S)N(C4CCS(=O)(=O)C4)C3=O)o2)cc1 (stereo not given)	> 100 µM (inactive)
O=C(N/N=C/C1CC=CCC1)c1cc(O)c(O)c(O)c1 (stereo not given)	> 100 µM (inactive)
CCN(C(=O)C(C)N1C(=O)/C(=C/c2ccco2)SC1=S)C1CCS(=O)(=O)C1 (stereo not given)	> 100 µM (inactive)
O=C(N/N=C/c1ccc(F)cc1)c1cc(O)c(O)c(O)c1	> 100 µM (inactive)
COc1cc([N+](=O)[O-])ccc1NC(=S)NCCC(c1ccccc1)c1ccccc1	> 100 µM (inactive)
O=C(CCN1C(=O)/C(=C/c2ccco2)SC1=S)Nc1ccc(O)cc1C(=O)O	> 100 µM (inactive)
O=[N+]([O-])c1ccc(NC(=S)NCCC(c2ccccc2)c2ccccc2)cc1	> 100 µM (inactive)
COc1ccc(N2CCN(C(=O)CN3C(=O)/C(=C\c4ccco4)SC3=S)CC2)cc1	> 100 µM (inactive)
Cc1ccc(Cl)cc1NC(=O)CSc1sc2c(O)cc(=O)[nH]c2c1C#N	> 100 µM (inactive)
Cc1csc(NC(=O)CSc2sc3c(O)cc(=O)[nH]c3c2C#N)n1	> 100 µM (inactive)
COc1ccc(NC(=O)CSc2sc3c(O)cc(=O)[nH]c3c2C#N)c(OC)c1	> 100 µM (inactive)
O=C(O)CC(C(=O)O)N1C(=O)/C(=C/c2ccc(-c3nc4ccccc4s3)o2)SC1=S (stereo not given)	> 100 µM (inactive)
Cc1ccc(C)c(NC(=O)CCNS(=O)(=O)c2ccc3[nH]c(=O)oc3c2)c1	> 100 µM (inactive)
O=C(CN1C(=O)/C(=C/c2ccco2)SC1=S)Nc1ccc(C(=O)O)cc1	> 100 µM (inactive)

Compound	IC50 (inhibition of PLAP activity)
Cc1ccc(NC(=O)CCNS(=O)(=O)c2ccc3[nH]c(=O)oc3c2)cc1N(C)C	> 100 µM (inactive)
O=C(CN1C(=O)/C(=C/c2ccco2)SC1=S)Nc1ccc(O)c(C(=O)O)c1	27 µM
O=C(CN1C(=O)/C(=C/c2ccco2)SC1=S)NC1CCS(=O)(=O)C1 (stereo not given)	> 100 µM (inactive)
CN(C(=O)CN1C(=O)/C(=C\c2ccco2)SC1=S)C1CCS(=O)(=O)C1 (stereo not given)	> 100 µM (inactive)
Cc1cc(NC(=O)CSc2sc3c(O)cc(=O)[nH]c3c2C#N)ccc1Br	> 100 µM (inactive)
CCOC(=O)N1CCN(S(=O)(=O)c2ccc3[nH]c(=O)oc3c2)CC1	> 100 µM (inactive)
COC(=O)NNC(=O)c1cc(OC)c(OC)c(OC)c1	> 100 µM (inactive)
CC(C(=O)N(C)C1CCS(=O)(=O)C1)N1C(=O)/C(=C/c2ccco2)SC1=S (stereo not given)	> 100 µM (inactive)
O=C(CN1C(=O)/C(=C/c2ccco2)SC1=S)NC1C=CS(=O)(=O)C1 (stereo not given)	28.5 µM
O=C(N/N=C/C1CC2CCC1C2)c1cc(O)c(O)c(O)c1 (stereo not given)	> 100 µM (inactive)
O=C(CCN1C(=O)/C(=C\c2ccco2)SC1=S)Nc1ccc(C(=O)O)c(O)c1	> 100 µM (inactive)
O=C(CCCN1C(=O)/C(=C/c2ccco2)SC1=S)Nc1ccccc1	> 100 µM (inactive)
N#Cc1c(SCC(=O)Nc2nc3ccc(Br)cc3s2)sc2c(O)cc(=O)[nH]c12	> 100 µM (inactive)
CC(C(=O)NCCc1ccc(O)cc1)N1C(=O)/C(=C/c2ccco2)SC1=S (stereo not given)	> 100 µM (inactive)
N#Cc1c(SCC(=O)Nc2ccc(C(F)(F)F)cc2)sc2c(O)cc(=O)[nH]c12	> 100 µM (inactive)
COc1cc(C(=O)NNC(=S)NC(=O)c2ccccc2C)cc(OC)c1OC	35.7 µM
COc1ccc(CNC(=O)CSc2sc3c(O)cc(=O)[nH]c3c2C#N)cc1	> 100 µM (inactive)
Cc1ccc(/C=C2\SC(=S)N(C3CCS(=O)(=O)C3)C2=O)o1 (stereo not given)	> 100 µM (inactive)
COc1ccc(CNC(=O)CSc2sc3c(O)cc(=O)[nH]c3c2C#N)cc1OC	> 100 µM (inactive)
Cc1ccc(NC(=O)CCNS(=O)(=O)c2ccc3[nH]c(=O)oc3c2)c(C)c1	> 100 µM (inactive)

Compound	IC50 (inhibition of PLAP activity)
O=C(c1ccco1)N1CCN(S(=O)(=O)c2ccc3[nH]c(=O)oc3c2)CC1	> 100 µM (inactive)
O=C(CN1C(=O)/C(=C\c2ccco2)SC1=S)Nc1ccccc1C(=O)O	> 100 µM (inactive)
CN1CCC(=NNC(=O)c2cc(O)c(O)c(O)c2)CC1	> 100 µM (inactive)
O=C(C1CCN(S(=O)(=O)c2ccc3[nH]c(=O)oc3c2)CC1)N1CC=C(c2ccccc2)CC1	> 100 µM (inactive)
CC(C(=O)Nc1ccccc1C(=O)O)N1C(=O)/C(=C\c2ccco2)SC1=S (stereo not given)	> 100 µM (inactive)
COc1cccc(/C=N/NC(=O)c2cc(O)c(O)c(O)c2)c1	> 100 µM (inactive)
O=C(NCCc1ccc(Cl)cc1)C1CCCN(S(=O)(=O)c2ccc3[nH]c(=O)oc3c2)C1 (stereo not given)	> 100 µM (inactive)
CC(C(=O)Nc1ccc(C(=O)O)c(O)c1)N1C(=O)/C(=C\c2ccco2)SC1=S (stereo not given)	32.6 µM
COc1ccc(NC(=O)C(CC(C)C)NS(=O)(=O)c2ccc3[nH]c(=O)oc3c2)cc1 (stereo not given)	> 100 µM (inactive)
CC(C)C(C(=O)NC1CCS(=O)(=O)C1)N1C(=O)/C(=C\c2ccco2)SC1=S (stereo not given)	> 100 µM (inactive)
COc1cc(C(=O)NNC(=S)NC(=O)c2ccc(Cl)cc2)cc(OC)c1OC	22 µM
O=C(CN1C(=O)/C(=C/c2ccco2)SC1=S)NCCc1ccc(O)cc1	> 100 µM (inactive)
CCN(C(=O)CN1C(=O)/C(=C\c2ccco2)SC1=S)C1CCS(=O)(=O)C1 (stereo not given)	> 100 µM (inactive)
O=C(CCN1C(=O)/C(=C/c2ccco2)SC1=S)Nc1ccc(C(=O)O)c(O)c1	> 100 µM (inactive)
O=C(CN1C(=O)/C(=C/c2ccco2)SC1=S)Nc1ccc2nccnc2c1	> 100 µM (inactive)
O=C1/C(=C/c2ccco2)SC(=S)N1C1CCS(=O)(=O)C1 (stereo not given)	17.9 µM
CC(C)NC(=O)CSc1sc2c(O)cc(=O)[nH]c2c1C#N	> 100 µM (inactive)
CCOc1ccc2nc(NC(=O)CN(C)S(=O)(=O)c3ccc4[nH]c(=O)oc4c3)sc2c1	> 100 µM (inactive)
S=C(NCCC(c1ccccc1)c1ccccc1)Nc1ccc(Cl)cc1Cl	72.1 µM
C/C(=N\NC(=O)c1cc(O)c(O)c(O)c1)c1ccncc1	> 100 µM (inactive)
